The source of these data is patent publication US8440710B2, “HSL inhibitors useful in the treatment of diabetes” (Hoffmann-La Roche Inc., priority 2009, dated 2013).

The experiment addresses T1, human HSL (Homo sapiens, UniProt Q05469).
T1 construct: generate a full length human HSL ORF with a 3′-His6 tag; made in house; host or cells: High 5 insect cells (baculovirus, pFast-BAC)
T1 sequence (Q05469 1-1076): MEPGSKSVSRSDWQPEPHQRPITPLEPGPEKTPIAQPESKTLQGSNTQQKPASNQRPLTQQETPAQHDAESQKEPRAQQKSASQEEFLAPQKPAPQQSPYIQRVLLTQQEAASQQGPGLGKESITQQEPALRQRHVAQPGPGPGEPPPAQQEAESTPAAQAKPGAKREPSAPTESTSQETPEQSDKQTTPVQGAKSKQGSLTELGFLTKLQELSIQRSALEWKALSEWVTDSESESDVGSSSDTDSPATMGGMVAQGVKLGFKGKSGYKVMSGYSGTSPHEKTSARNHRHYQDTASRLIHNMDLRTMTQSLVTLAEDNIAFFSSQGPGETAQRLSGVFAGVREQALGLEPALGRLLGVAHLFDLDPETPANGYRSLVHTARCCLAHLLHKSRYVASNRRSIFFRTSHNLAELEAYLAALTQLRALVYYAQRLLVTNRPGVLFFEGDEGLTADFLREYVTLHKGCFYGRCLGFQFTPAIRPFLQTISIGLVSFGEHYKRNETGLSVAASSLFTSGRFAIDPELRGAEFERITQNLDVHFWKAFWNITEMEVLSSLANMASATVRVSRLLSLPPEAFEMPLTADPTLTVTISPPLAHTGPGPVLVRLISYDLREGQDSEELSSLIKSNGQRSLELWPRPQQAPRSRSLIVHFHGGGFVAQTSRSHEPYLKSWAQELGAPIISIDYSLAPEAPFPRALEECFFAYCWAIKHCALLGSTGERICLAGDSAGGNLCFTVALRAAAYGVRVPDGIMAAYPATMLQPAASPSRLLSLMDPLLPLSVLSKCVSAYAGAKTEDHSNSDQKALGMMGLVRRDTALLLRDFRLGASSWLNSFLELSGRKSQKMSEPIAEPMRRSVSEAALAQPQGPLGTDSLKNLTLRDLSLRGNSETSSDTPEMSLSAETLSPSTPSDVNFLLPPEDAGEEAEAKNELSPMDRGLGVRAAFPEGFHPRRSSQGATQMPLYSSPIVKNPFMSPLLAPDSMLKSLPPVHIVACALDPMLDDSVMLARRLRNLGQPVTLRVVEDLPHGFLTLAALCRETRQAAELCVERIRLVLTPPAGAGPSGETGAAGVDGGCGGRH
Kind of experiment: Human Hormone-Sensitive Lipase (HSL) enzyme inhibition assay (colorimetric, DMPT substrate). The class given is biochemical. Conditions: human full length HSL-His6, 2,3-dimercapto-1-propanol tributyrate substrate, 37° C. 20 minutes, absorbance at 405 nm; read-out: HSL hum IC50. The gist of the method:
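Full-length human HSL with C-terminal His6, expressed in baculovirus-infected High 5 cells and Ni-NTA purified, was added (15 ug/ml stock) to 1.5 mM DMPT in 100 mM MOPS pH 7.2, 0.2 mg/ml fatty acid-free BSA containing compound. After 20 min at 37 °C, DTNB with SDS/Triton X-100 was added; A405 read after 15 min at RT.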
Turning to `CCOC[C@]1(O)CC[C@@]2(CCN(c3ccc(O[C@@H](C)C(F)(F)F)nc3)C2=O)CC1` [Example 248, (5α,8β)-8-Ethoxymethyl-8-hydroxy-2-[6-((S)-2,2,2-trifluoro-1-methyl-ethoxy)-pyridin-3-yl]-2-aza-spiro[4.5]decan-1-one], the IC50 is 340 nM. The result for `C[C@H](Oc1ccc(N2CC[C@]3(CC[C@@](O)(C(F)(F)F)CC3)C2=O)cn1)C(F)(F)F` [Example 173, (5α,8α)-8-Hydroxy-8-trifluoromethyl-2-[6-((S)-2,2,2-trifluoro-1-methyl-ethoxy)-pyridin-3-yl]-2-aza-spiro[4.5]decan-1-one] reads 50 nM; that for `O=C1N(CCc2ccc(F)cc2)CC[C@]12CC[C@H](O)CC2` [Example 33, (5α,8α)-2-[2-(4-Fluoro-phenyl)-ethyl]-8-hydroxy-2-aza-spiro[4.5]decan-1-one], 6000 nM; that for `CC(C)S(=O)(=O)C[C@]1(O)CC[C@]2(CCN(c3ccc(OCC(F)(F)F)cc3)C2=O)CC1` [Example 318, (5α,8α)-8-Hydroxy-8-(propane-2-sulfonylmethyl)-2-[4-(2,2,2-trifluoro-ethoxy)-phenyl]-2-aza-spiro[4.5]decan-1-one], 30 nM. The result for `O=C1N(c2ccc(OCC(F)(F)F)cc2)CC[C@]12CC[C@](O)(COCC1CCC1)CC2` [Example 254, (5α,8β)-8-[(Cyclobutylmethoxy)methyl]-8-hydroxy-2-[4-(2,2,2-trifluoro-ethoxy)-phenyl]-2-aza-spiro[4.5]decan-1-one] reads 410 nM. The value for `CCOC[C@]1(O)CC[C@]2(CCN(c3ccc(O[C@H](C)C(F)(F)F)nc3)C2=O)CC1` [Example 311, (5α,8α)-8-Ethoxymethyl-8-hydroxy-2-[6-((R)-2,2,2-trifluoro-1-methyl-ethoxy)-pyridin-3-yl]-2-aza-spiro[4.5]decan-1-one] was 30 nM. As to `CC(C)OC[C@]1(O)CC[C@]2(CCN(c3ccc(OCC(F)(F)F)cc3)C2=O)CC1` [Example 276, (5α,8α)-8-Hydroxy-8-isopropoxymethyl-2-[4-(2,2,2-trifluoro-ethoxy)-phenyl]-2-aza-spiro[4.5]decan-1-one], the IC50 came out at 10 nM. The result for `CCc1ccc(N2CC[C@]3(CC[C@@](O)(COc4ccccc4)CC3)C2=O)cc1` [Example 228, (5α,8α)-2-(4-Ethyl-phenyl)-8-hydroxy-8-phenoxymethyl-2-aza-spiro[4.5]decan-1-one] reads 20 nM. Consider `O=C1N(c2ccc(OC(F)(F)F)cc2)CC[C@]12CC[C@](O)(Cc1ccccc1)CC2` [Example 63, (5α,8β)-8-Benzyl-8-hydroxy-2-(4-trifluoromethoxy-phenyl)-2-aza-spiro[4.5]decan-1-one], for which the concentration for half-maximal inhibition (IC50) worked out at 600 nM. Take `CC[C@]1(O)CC[C@]2(CCN(c3ccc(CC(F)(F)F)cc3)C2=O)CC1` [Example 79, (5α,8α)-8-Ethyl-8-hydroxy-2-[4-(2,2,2-trifluoro-ethyl)-phenyl]-2-aza-spiro[4.5]decan-1-one]: the half-inhibitory concentration (IC50) came out at 30 nM. For `CC(C)(C)c1ccc(N2CCC3(CCC(C(O)(O)C(F)(F)F)CC3)C2=O)cc1` (stereo not shown) [Example 362, 2-(4-tert-Butyl-phenyl)-8-(2,2,2-trifluoro-1,1-dihydroxy-ethyl)-2-aza-spiro[4.5]decan-1-one], the IC50 amounted to 10 nM. The result for `CCC[C@]1(O)CC[C@]2(CCN(c3ccc(C(O)C(F)(F)F)cc3)C2=O)CC1` (mixture of isomers) [Example 133, (5α,8α)-8-Hydroxy-8-propyl-2-(4-(2,2,2-trifluoro-1-hydroxyethyl)phenyl)-2-aza-spiro[4.5]decan-1-one] reads 30 nM; that for `CCC[C@]1(O)CC[C@]2(CCN(c3ccc(OC(C)C(F)(F)F)cc3)C2=O)CC1` (stereo partly drawn) [Example 164, (5α,8α)-8-Hydroxy-8-propyl-2-[4-(2,2,2-trifluoro-1-methyl-ethoxy)-phenyl]-2-aza-spiro[4.5]decan-1-one], 20 nM.

As to `CC(C)(C)COC[C@]1(O)CC[C@]2(CCN(c3ccc(OCC(F)(F)F)cc3)C2=O)CC1` [Example 274, (5α,8α)-8-(2,2-Dimethyl-propoxymethyl)-8-hydroxy-2-[4-(2,2,2-trifluoro-ethoxy)-phenyl]-2-aza-spiro[4.5]decan-1-one], the IC50 was determined as 20 nM. On to `CC[C@]1(O)CC[C@]2(CCN(c3ccc(OCC(F)(F)F)cc3)C2=O)CC1` [Example 88, (5α,8α)-8-Ethyl-8-hydroxy-2-[4-(2,2,2-trifluoro-ethoxy)-phenyl]-2-aza-spiro[4.5]decan-1-one], for which the IC50 stood at 42 nM. The result for `CCC[C@]1(O)CC[C@]2(CCN(c3ccc(OCC(F)(F)F)cc3)C2=O)CC1` [Example 104, 8-Hydroxy-8-propyl-2-[4-(2,2,2-trifluoro-ethoxy)-phenyl]-2-aza-spiro[4.5]decan-1-one] reads 20 nM.

`O=C(NCc1ccccc1F)O[C@H]1CC[C@@]2(CCN(c3ccc(OC(F)(F)F)cc3)C2=O)CC1` [Example 14, (2-Fluoro-benzyl)-carbamic acid [(5α,8β)-1-oxo-2-(4-trifluoromethoxy-phenyl)-2-aza-spiro[4.5]dec-8-yl]ester]: the IC50 was 20 nM. The result for `CC(C)[C@]1(O)CC[C@]2(CCN(c3ccc(C(F)(F)F)cc3)C2=O)CC1` [Example 209, (5α,8α)-8-hydroxy-8-isopropyl-2-(4-(trifluoromethyl)phenyl)-2-aza-spiro[4.5]decan-1-one] reads 30 nM; that for `CC(F)(F)C(O)c1ccc(N2CC[C@]3(CC[C@@](O)(CCC(F)(F)F)CC3)C2=O)cc1` (stereo partly drawn) [Example 193, (5α,8α)-2-(4-(2,2-difluoro-1-hydroxypropyl)phenyl)-8-hydroxy-8-(3,3,3-trifluoropropyl)-2-aza-spiro[4.5]decan-1-one], 30 nM. The result for `O=C1N(c2ccc([C@@H](O)C(F)(F)F)cc2)CC[C@]12CC[C@@](O)(C1CC1)CC2` [Example 201, (5α,8α)-8-cyclopropyl-8-hydroxy-2-(4-((R)-2,2,2-trifluoro-1-hydroxyethyl)phenyl)-2-aza-spiro[4.5]decan-1-one] reads 50 nM; that for `CNC(=O)O[C@H]1CC[C@@]2(CCN(c3ccc(OC(F)(F)F)cc3)C2=O)CC1` [Example 17, Methyl-carbamic acid [(5α,8β)-1-oxo-2-(4-trifluoromethoxy-phenyl)-2-aza-spiro[4.5]dec-8-yl]ester], 80 nM. The result for `COCCc1ccc(N2CC[C@]3(CC[C@@](O)(C(F)(F)F)CC3)C2=O)cc1` [Example 123, (5α,8α)-8-Hydroxy-2-[4-(2-methoxy-ethyl)-phenyl]-8-trifluoromethyl-2-aza-spiro[4.5]decan-1-one] reads 420 nM; that for `CC(C)c1ccc(N2CC[C@]3(CC[C@@](O)(C(C)C)CC3)C2=O)cc1` [Example 203, (5α,8α)-8-hydroxy-8-isopropyl-2-(4-isopropylphenyl)-2-aza-spiro[4.5]decan-1-one], 10 nM. Regarding `CNC(=O)C[C@]1(O)CC[C@]2(CCN(c3ccc(OCC(F)(F)F)cc3)C2=O)CC1` [Example 158, 2-((5α,8α)-8-Hydroxy-1-oxo-2-(4-(2,2,2-trifluoroethoxy)phenyl)-2-aza-spiro[4.5]decan-8-yl)-N-methylacetamide], the concentration for half-maximal inhibition (IC50) is 340 nM. The value for `Cc1cc(C[C@]2(O)CC[C@@]3(CCN(c4ccc(OC(C)C)cc4)C3=O)CC2)no1` [Example 221, (5α,8β)-8-hydroxy-2-(4-isopropoxyphenyl)-8-((5-methylisoxazol-3-yl)methyl)-2-aza-spiro[4.5]decan-1-one] was 1160 nM.

A word on the IC50: it is the midpoint of a concentration-inhibition curve.
